The values below come from publication PMC9151520 (Archives of Toxicology, 2022).

Where two headings read alike, the source gives them in different places.

For data set [1], the system named is p53 signaling (p53RE-bla HCT-116 cells). In words: cells. The format is cell-based.
Data set [2] shares this test system. In words: cells. The format is cell-based. The source holds these as a separate data set.
Data set [3] shares this test system. In words: cells. The format is cell-based. Conditions: for Emax: HCT-116, read-out: efficacy.
Data set [4] has the same test system. Conditions: for EC50: read-out: p53 activation EC50.
Data set [5] shares this test system.
The subject of data set [6] is p53RE-bla HCT-116 cells.
The conditions of data set [7]: rat.
Data set [8] relates to p53 signaling (p53RE-bla HCT-116 cells). Kind of data set: cells. To be noted: Homo sapiens.
Data set [9] in a line: in vitro. To be noted: male, Sprague Dawley, rat, microsomes, pH 7.4.
Data set [10] deals with p53 signaling (p53RE-bla HCT-116 cells). In words: cells. To be noted: Homo sapiens, HCT-116, read-out: p53 activation EC50, HLM.
The mark [11] stands for this setting: HCT-116, read-out: p53 activation EC50, cherry pick confirmation.
Setting [12] is: HCT-116, read-out: p53 activation efficacy, cherry pick confirmation.
The mark [13] stands for this setting: HCT-116, read-out: p53 activation EC50, primary screening.
[14] abbreviates: HCT-116, read-out: p53 activation efficacy, primary screening.

What is called EC50 is the concentration that produces a half-maximal response. What is called half-life is the time needed for the level to fall by half in the phase considered.

With `CCOP(=S)(Oc1cnc(C(C)(C)C)nc1)OC(C)C` (centres unmarked) [Tebupirimfos], the “p53 activation EC50” value in data set [1] and in [5] was “inactive” each time. In addition, the values for the p53 activation efficacy result in data set [1] and in [4] were “inactive” and 42.005, respectively. The concentration giving a half-maximal response (EC50) in [2] (Homo sapiens, HCT-116, 0.5 h) was 2.17 µM; in [3] (Homo sapiens, HCT-116), 1.32 µM; in data set [4] it was 1.63 µM; in data set [8] (HCT-116) it was 1.23 µM. Moreover, the “Viability EC50” value in data set [6] is “inactive”. Besides, in [6], the Viability efficacy entry was “inactive”. The “Depletion after 16 h of incubation with cells” value (from here on “Depletion after 16 h”) in data set [7] was 94.85 ± 0.13%. For the same compound, in data set [8] (HCT-116, read-out: efficacy), the Emax was 43.4%. Moreover, the half-life in data set [9] is 3.59 ± 0.08 min.
For the compound `CCOP(=S)(OCC)Oc1cc(-c2ccccc2)on1` [Isoxathion], in [1], the “p53 activation EC50, No MS” value is “inactive” and the “p53 activation Efficacy, No MS” value was “inactive”. The compound also gave an EC50 in data set [2] (Homo sapiens, HCT-116, 0.5 h) of 27.5 µM. Moreover, it took 9.77 µM to reach a half-maximal effect in data set [3] (Homo sapiens, HCT-116) (EC50). Also, the “p53 activation EC50, HLM” value in data set [5] is “inactive”. In addition, in data set [6], the “Viability EC50, HLM” value was “inactive”; the “Viability EC50, No MS” value is “inactive”; the “Viability EC50, RLM” value was “inactive”; the “Viability Efficacy, HLM” value is “inactive”. In data set [6], the “Viability Efficacy, No MS” value is “inactive” and the “Viability Efficacy, RLM” value is “inactive”. In data set [7], the “Depletion after 16 h” value was found to be 94.65 ± 0.45%. The compound also returned an EC50 in [8] (HCT-116) of 8.62 µM. Also, the Emax in [8] (HCT-116, read-out: efficacy) is 46%. The concentration for a half-maximal effect (EC50) in data set [10] was determined as 4.45 µM. The half-life in [9] stood at 2.77 ± 0.25 min.
On to `CCOP(=S)(OCC)Oc1cnc2ccccc2n1` [Quinalphos], for which, in data set [1], the “p53 activation EC50, cherry pick confirmation” value is “inactive”; the “p53 activation EC50, primary screening” value is “inactive”; the “p53 activation efficacy, cherry pick confirmation” value was “inactive”; the “p53 activation efficacy, primary screening” value is “inactive”. The concentration giving a half-maximal response (EC50) entry in data set [2] is “Inactive”. Besides, the EC50 entry in data set [3] is recorded as “Inactive”. Also, in data set [5], the “p53 activation EC50, cherry pick confirmation” value was “inactive” and the “p53 activation efficacy, cherry pick confirmation” value is “inactive”. Further, in [6], the “Viability EC50, cherry pick confirmation” value was “inactive”; the “Viability EC50, primary screening” value was “inactive”; the “Viability efficacy, cherry pick confirmation” value is “inactive”; the “Viability efficacy, primary screening” value is “inactive”. Further, the “Depletion after 16 h” value in data set [7] stood at 96.66 ± 0.83%. Besides, the EC50 in data set [8] (HCT-116) was 9.46 µM. The Emax in data set [8] (HCT-116, read-out: efficacy) was 32.7%. In addition, the EC50 in data set [8] (setting [11]) came to 7.65 µM. Further, the Emax in data set [8] (setting [12]) is 34.3%. In data set [9], this compound registered a half-life of 2.49 ± 0.04 min.
Consider `Cc1ccccc1OP(=O)(Oc1ccccc1C)Oc1ccccc1C` [Tri-o-cresyl phosphate], for which, in data set [1], the “p53 activation EC50, No MS” value was “inactive” and the “p53 activation Efficacy, No MS” value was “inactive”. This compound also displayed an EC50 in data set [2] (Homo sapiens, HCT-116, 0.5 h) of 15.8 µM. In [3] (Homo sapiens, HCT-116), the EC50 was determined as 3.14 µM. Besides, the “p53 activation EC50, HLM” value in data set [5] is “inactive”. In data set [6], the “Viability EC50, HLM” value was “inactive”; the “Viability EC50, No MS” value is “inactive”; the “Viability EC50, RLM” value was “inactive”; the “Viability Efficacy, HLM” value was “inactive”. In addition, in [6], the “Viability Efficacy, No MS” value was “inactive” and the “Viability Efficacy, RLM” value is “inactive”. Besides, in data set [7], the “Depletion after 16 h” value came to 93.36 ± 0.84%. For the same compound, in data set [8] (HCT-116), the EC50 came out at 5.32 µM. Also, in data set [8] (HCT-116, read-out: efficacy), the Emax is 59.6%. The concentration giving a half-maximal response (EC50) in data set [10] was found to be 1.12 µM. In data set [9], this compound came in with a half-life of 1.17 ± 0.08 min.
Regarding `CCSC(=O)N1CCCCCC1` [Molinate], the “p53 activation EC50, cherry pick confirmation” value in data set [1] and in [5] was “inactive” in each case. The “p53 activation EC50, primary screening” value in [1] and in [5] was “inactive” each time. Besides, the “p53 activation efficacy, cherry pick confirmation” value in data set [1] and in data set [5] was “inactive” each time. For the same compound, the “p53 activation efficacy, primary screening” value in data set [1] and in [5] was “inactive” in each case. For the same compound, the half-maximal effective concentration (EC50) entry was “Inactive” in data set [2]; 0.3 µM in data set [3] (Homo sapiens, HCT-116); 0.35 µM in data set [8] (HCT-116); 0.355 µM in data set [8] (setting [11]); 1.85 µM in data set [8] (setting [13]). Besides, the Emax is 44.1% in [3] (Homo sapiens); 40.5% in data set [8] (HCT-116, read-out: efficacy); 39.9% in data set [8] (setting [12]); 45.3% in data set [8] (setting [14]). In addition, the “Viability EC50, cherry pick confirmation” value in data set [6] was “inactive”. For the same compound, the “Viability EC50, primary screening” value in [6] is “inactive”. Besides, the “Viability efficacy, cherry pick confirmation” value in data set [6] is “inactive”. In addition, the “Viability efficacy, primary screening” value in data set [6] was “inactive”. The “Depletion after 16 h” value in [7] was found to be 97.58 ± 0.19%. For the same compound, the half-life in data set [9] came out at 12 ± 0.18 min.
`CCN(CC)C(=O)SCc1ccc(Cl)cc1` [Thiobencarb]: the “p53 activation EC50” value in [1] and in data set [5] was “inactive” each time. In addition, the p53 activation efficacy entry in data set [1] is “inactive”; in [4], 51.3593. Besides, the concentration for a half-maximal effect (EC50) in [2] (Homo sapiens, HCT-116, 0.5 h) was 1.68 µM; in [3] (Homo sapiens, HCT-116) it was 1.84 µM; in data set [4], 1.63 µM; in data set [8] (HCT-116), 5.52 µM. Also, the “Viability EC50” value in data set [6] was “inactive”. Moreover, the Viability efficacy result in [6] was “inactive”. In addition, the “Depletion after 16 h” value in data set [7] is 98.6 ± 0.04%. Moreover, the Emax in data set [8] (HCT-116, read-out: efficacy) was 71.8%. This compound also came in with a half-life in data set [9] of 1.48 ± 0.54 min.
Regarding `COc1c2ccoc2cc2oc(=O)ccc12` [5-Methoxypsoralen], the “p53 activation EC50, cherry pick confirmation” value in data set [1] and in data set [5] was “inactive” each time. Besides, the “p53 activation EC50, primary screening” value in data set [1] and in [5] was “inactive” throughout. Moreover, the “p53 activation efficacy, cherry pick confirmation” value in [1] and in [5] was “inactive” each time. Further, the “p53 activation efficacy, primary screening” value in [1] and in [5] was “inactive” in each case. For the same compound, the 50% effective concentration (EC50) entry in data set [2] is “Inactive”; in data set [3] (Homo sapiens, HCT-116), 13.2 µM; in data set [8] (HCT-116), 16.4 µM; in data set [8] (setting [11]) it was 9.45 µM; in data set [8] (setting [13]), 20.9 µM. The Emax in data set [3] (Homo sapiens) is 75%; in data set [8] (HCT-116, read-out: efficacy) it was 72.3%; in data set [8] (setting [12]), 62.5%; in data set [8] (setting [14]), 81.3%. The “Viability EC50, cherry pick confirmation” value in [6] was “inactive”. The “Viability EC50, primary screening” value in [6] was “inactive”. Besides, the “Viability efficacy, cherry pick confirmation” value in data set [6] was “inactive”. Besides, in data set [6], the “Viability efficacy, primary screening” value is “inactive”. Besides, in data set [7], the “Depletion after 16 h” value is on record as 45.7 ± 3.67%. This compound also displayed a half-life in data set [9] of 21.1 ± 3.72 min.
